From patent publication US20190369111A1, “MOLECULAR KINETICS EVALUATION METHOD AND SCREENING METHOD” (Tokyo University of Science Foundation, priority 2016, published 2019)

Molecular target: T1, endogenous wild-type K-Ras protein (Homo sapiens, UniProt P01116)
T1 construct: an endogenous wild-type K-Ras protein and wild-type H-Ras protein in HeLa cells; endogenous in cells; host or cells: HeLa cells
Assay: Degradation of endogenous wild-type K-Ras protein in HeLa cells, Western blot analysis
Type: cell-based
Settings: 48 hours after addition
Protocol: HeLa cells were seeded in a 24-well plate at a cell density of 8×10^4 cells/well, and then cultured under conditions of 37° C. and 5 vol % CO2 for 16 hours.
After 16 hours from cell seeding, TUS-007 was added to HeLa cells as follows. As a medium, a serum-free medium (37° C.) in which 1 mass % L-glutamine solution (Sigma-Aldrich) was added to D-MEM (high D-glucose, phenol red, sodium pyruvate (Wako Pure Chemical Industries, Ltd.)) was used. It is noted that the L-glutamine solution was added immediately before use. A DMSO solution containing TUS-007 was mixed with the medium so that the concentration of DMSO was 1 vol %, and added to each well at 500 μL/well, and cultured under conditions of 37° C. and 5 vol % CO2. As a control, DMSO was used.
The medium was removed 48 hours after addition of TUS-007, and then PBS was added to wash the cells. […]
After electrophoresis, proteins were transferred to a PVDF membrane (Immobion™-P, Millipore) under conditions of 100 V and 2 hours using a tank-type blotting device and a transfer buffer (25 mM Tris-HCl, 195 mM glycine, 0.01% SDS, 15% methanol). […] Subsequently, the membrane was treated with a chemiluminescence reagent Immobilon™ Western (Millipore), and then chemiluminescence was detected using a lumino image analyzer LAS-3000 (FUJIFILM Corporation). […]

T1 sequence (P01116 1-188 isoform P01116-2): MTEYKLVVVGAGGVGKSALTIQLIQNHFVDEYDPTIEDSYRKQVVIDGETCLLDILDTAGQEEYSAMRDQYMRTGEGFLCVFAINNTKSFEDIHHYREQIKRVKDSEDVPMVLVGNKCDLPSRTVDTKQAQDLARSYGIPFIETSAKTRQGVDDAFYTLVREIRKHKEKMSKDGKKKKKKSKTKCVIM

CC[C@@H](C)[C@H](NC(=O)CCCCCCNC(=O)[C@H](CC(C)C)NC(=O)CNC(=O)c1cc(Cl)ccc1Cl)C(=O)Nc1ccc2[nH]c(Cc3c[nH]c4ccccc34)nc2c1 [TUS-007]
amount of endogenous wild-type K-Ras protein: reduced
